According to patent US20240376097A1, “BCL-2 Inhibitor” (BeiGene Ltd., priority 2020, published 2024):
Where two headings read alike, the source gives them in different places.

Key:
[1] = tested on: RS4;11 (BCL-2 dependent acute lymphoblastic leukemia cell line); experiment: RS4;11 Cell Proliferation Assay; assay type: cell-based; details: Homo sapiens, RS4-11, RS4;11 cells, read-out: Cellular proliferation assay (IC50, nM) RS4
Method in brief: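 RS4;11 cells, 50,000 per well in RPMI-1640 with 10% FBS, treated 48 h at 37 °C with a 10-point dilution series topping at 1 μM. Viability read by CellTiter-Glo ATP luminescence; mean IC50 reported.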

[2] = tested on: recombinant human Bcl-2-G101V protein; experiment: Bcl-2-G101V TR-FRET Assay; assay type: binding; details: for Ratio of Bcl-2 G101V/WT: ratio of biochemical IC50 Bcl-2 G101V / Bcl-2 WT
Method in brief: (§1)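 Compounds were titrated at increasing concentrations against the Bcl-2-G101V–ligand interaction. TR-FRET signals were then read (ex 337 nm; em 490/520 nm). Percent inhibition was derived from the 490-to-520 nm ratio, and IC50 from a four-parameter logistic equation.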

[3] = target: recombinant human Bcl-2-G101V protein (Homo sapiens (Human), UniProt P10415, G101V); experiment: Bcl-2-G101V TR-FRET Assay; assay type: binding; details: Bcl-2 G101V mutant, TR-FRET; read-out: Biochemical assay (IC50, nM) Bcl-2 G101V
Method in brief: as §1

[4] = target: Recombinant human Bcl-2 protein (Homo sapiens (Human), UniProt P10415); experiment: Bcl-2 TR-FRET Assay; assay type: binding
Method in brief: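 0.05 nM Bcl-2 pre-incubated 0.5 h at room temperature with 10-point compound dilutions (top final 1, 0.1, 0.02 or 0.01 uM) in 20 mM potassium phosphate pH 7.5, 50 mM NaCl, 1 mM EDTA, 0.05% Tween-20, 0.01% BSA; FITC-Bak peptide (0.5 nM) and anti-6His Tb cryptate added, 1 h. IC50 from four-parameter logistic fit.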

[5] = target: recombinant human Bcl-2 D103Y protein (Homo sapiens (Human), UniProt P10415, D103Y); experiment: Bcl-2-D103Y Biochemical Assay (TR-FRET); assay type: binding; details: for IC50: TR-FRET, FITC labeled Bak peptide; for ratio of Bcl-2 D103Y/Bcl-2 wt, compared with F91b in WO2019210828: comparison in words; for Ratio of Bcl-2 D103Y/Bcl-2 WT: ratio of IC50
Method in brief: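 Recombinant human Bcl-2 D103Y binding to its ligand measured by TR-FRET (ex 337 nm, em 490/520 nm) with increasing compound concentrations. Percent inhibition from the 490/520 nm ratio; IC50 from four-parameter logistic fit.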

[6] = tested on: BCL-2 G101V knock-in cell line H96 (derive from RS4;11); experiment: Bcl 2-G101V Knock-In RS4;11 Cell Proliferation Assay; assay type: cell-based; details: Homo sapiens, RS4;11 Bcl-2 G101V knock-in clone H96, 48 hrs, CellTiter-GLO, read-out: Cellular proliferation assay (IC50, nM) RS4
Method in brief: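 H96, a CRISPR-generated RS4;11 clone carrying BCL2-G101V knock-in (WES/RNA-seq validated), seeded 50,000 per well and exposed 48 h at 37 °C to 10-point dilutions topping at 1 or 10 μM. Viability by CellTiter-Glo luminescence; mean IC50.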

[7] = Bcl-2 wild type, TR-FRET, read-out: Biochemical assay (IC50, nM) Bcl-2 WT
[8] = wild type Bcl-2, unit inferred, read-out: Bcl-2 WT

`COc1cc(CN2CCN(C3CC4(CCN(c5ccc(C(=O)NS(=O)(=O)c6ccc(NC[C@H]7CC[C@](C)(O)CC7)c([N+](=O)[O-])c6)c(Oc6cnc7[nH]ccc7c6)c5)CC4)C3)C(c3ccccc3C(C)C)C2)cc(OC)c1OC` (stereo partly drawn) [Example 75, 2-((1H-pyrrolo[2,3-b]pyridin-5-yl)oxy)-N-((4-((((1r,4r)-4-hydroxy-4-methylcyclohexyl)methyl)amino)-3-nitrophenyl)sulfonyl)-4-(2-(2-(2-isopropylphenyl)-4-(3,4,5-trimethoxybenzyl)piperazin-1-yl)-7-azaspiro[3.5]nonan-7-yl) benzamide] was tested, and the IC50 [1] was 0.35 nM, the “Ratio of Bcl-2 G101V/WT” value [2] was 4.7 and the IC50 [3] was 0.28 nM. For the same molecule, the IC50 [4, 7] was 0.059 nM, the IC50 [4, 8] was 0.059 nM and the IC50 [5] was 0.22 nM. The “ratio of Bcl-2 D103Y/Bcl-2 wt, compared with F91b in WO2019210828” value [5] was “significantly lower”, the “Ratio of Bcl-2 D103Y/Bcl-2 WT” value [5] was 3.6 and the IC50 [6] was 1.5 nM.
For `CC(C)c1ccccc1C1CN(Cc2ccc3c(c2)OCCO3)CCN1C1CC2(CCN(c3ccc(C(=O)NS(=O)(=O)c4ccc(NC[C@H]5CC[C@](C)(O)CC5)c([N+](=O)[O-])c4)c(Oc4cnc5[nH]ccc5c4)c3)CC2)C1` (stereo partly drawn) [Example 78, 2-((1H-pyrrolo[2,3-b]pyridin-5-yl)oxy)-4-(2-(4-((2,3-dihydrobenzo[b] [1,4]dioxin-6-yl)methyl)-2-(2-isopropylphenyl)piperazin-1-yl)-7-azaspiro[3.5]nonan-7-yl)-N-((4-((((1r,4r)-4-hydroxy-4-methylcyclohexyl)methyl)amino)-3-nitrophenyl)sulfonyl)benzamide], the IC50 [1] was 0.42 nM, the “Ratio of Bcl-2 G101V/WT” value [2] was 4.6 and the IC50 [3] was 0.98 nM. For the same molecule, the IC50 [4, 7] was 0.21 nM, the IC50 [4, 8] was 0.21 nM and the IC50 [5] was 0.62 nM. The “Ratio of Bcl-2 D103Y/Bcl-2 WT” value [5] was 2.9 and the IC50 [6] was 2.6 nM.
`CC(C)c1ccccc1C1CN(Cc2cccc3c2OCCO3)CCN1C1CC2(CCN(c3ccc(C(=O)NS(=O)(=O)c4ccc(NC[C@H]5CC[C@](C)(O)CC5)c([N+](=O)[O-])c4)c(Oc4cnc5[nH]ccc5c4)c3)CC2)C1` (stereo partly drawn) [Example 79, 2-((1H-pyrrolo[2,3-b]pyridin-5-yl)oxy)-4-(2-(4-((2,3-dihydrobenzo [b][1,4]dioxin-5-yl)methyl)-2-(2-isopropylphenyl)piperazin-1-yl)-7-azaspiro[3.5]nonan-7-yl)-N-((4-((((1r,4r)-4-hydroxy-4-methylcyclohexyl)methyl)amino)-3-nitrophenyl)sulfonyl)benzamide] was tested, and the IC50 [1] was 0.35 nM, the “Ratio of Bcl-2 G101V/WT” value [2] was 3.2 and the IC50 [3] was 0.51 nM. The IC50 [4, 7] was 0.16 nM, the IC50 [4, 8] was 0.16 nM and the IC50 [5] was 0.19 nM. The “Ratio of Bcl-2 D103Y/Bcl-2 WT” value [5] was 1.2 and the IC50 [6] was 1 nM.
With `COc1ccc(CN2CCN(C3CC4(CCN(c5ccc(C(=O)NS(=O)(=O)c6ccc(NC[C@H]7CC[C@](C)(O)CC7)c([N+](=O)[O-])c6)c(Oc6cnc7[nH]ccc7c6)c5)CC4)C3)C(c3ccccc3C(C)C)C2)cc1OC` (stereo partly drawn) [Example 81, 2-((1H-pyrrolo[2,3-b]pyridin-5-yl)oxy)-4-(2-(4-(3,4-dimethoxybenzyl)-2-(2-isopropylphenyl)piperazin-1-yl)-7-azaspiro[3.5]nonan-7-yl)-N-((4-((((1r,4r)-4-hydroxy-4-methylcyclohexyl)methyl)amino)-3-nitrophenyl)sulfonyl)benzamide] the IC50 [1] was 0.286 nM, the “Ratio of Bcl-2 G101V/WT” value [2] was 5.2 and the IC50 [3] was 0.2 nM. The IC50 [4, 7] was 0.038 nM, the IC50 [4, 8] was 0.038 nM and the IC50 [5] was 0.084 nM. For the same molecule, the “Ratio of Bcl-2 D103Y/Bcl-2 WT” value [5] was 2.2 and the IC50 [6] was 0.878 nM.
`CC(C)c1ccccc1C1CN(Cc2ccc(S(C)(=O)=O)cc2)CCN1C1CC2(CCN(c3ccc(C(=O)NS(=O)(=O)c4ccc(NC[C@H]5CC[C@](C)(O)CC5)c([N+](=O)[O-])c4)c(Oc4cnc5[nH]ccc5c4)c3)CC2)C1` (stereo partly drawn) [Example 82, 2-((1H-pyrrolo[2,3-b]pyridin-5-yl)oxy)-N-((4-((((1r,4r)-4-hydroxy-4-methylcyclohexyl)methyl)amino)-3-nitrophenyl)sulfonyl)-4-(2-(2-(2-isopropylphenyl)-4-(4-(methylsulfonyl)benzyl)piperazin-1-yl)-7-azaspiro[3.5]nonan-7-yl) benzamide] was tested, and the IC50 [1] was 0.42 nM, the “Ratio of Bcl-2 G101V/WT” value [2] was 9.5 and the IC50 [3] was 0.29 nM. It also gave an IC50 [4, 7] of 0.031 nM, an IC50 [4, 8] of 0.031 nM and an IC50 [5] of 0.17 nM. For the same molecule, the “Ratio of Bcl-2 D103Y/Bcl-2 WT” value [5] was 5.6 and the IC50 [6] was 2.67 nM.
`COc1ccc(CN2CCN(C3CC4(C3)CN(c3ccc(C(=O)NS(=O)(=O)c5ccc(NC[C@H]6CC[C@](C)(O)CC6)c([N+](=O)[O-])c5)c(Oc5cnc6[nH]ccc6c5)c3)C4)C(c3ccccc3C(C)C)C2)cc1` (stereo partly drawn) [Example 83, 2-((1H-pyrrolo[2,3-b]pyridin-5-yl)oxy)-N-((4-((((1r,4r)-4-hydroxy-4-methylcyclohexyl)methyl)amino)-3-nitrophenyl)sulfonyl)-4-(6-(2-(2-isopropylphenyl)-4-(4-methoxybenzyl)piperazin-1-yl)-2-azaspiro[3.3]heptan-2-yl) benzamide] was tested, and the IC50 [1] was 0.27 nM, the “ratio of IC50 of Bcl-2 G101V/Bcl-2 wt, compared with Example F132b in WO2019210828 and ABT-199 (venetoclax)” value ([2]; comparison in words) was “much lower” and the “Ratio of Bcl-2 G101V/WT” value [2] was 3.1. The IC50 [3] was 0.25 nM, the IC50 [4, 7] was 0.079 nM and the IC50 [4, 8] was 0.079 nM. The IC50 [5] was 0.16 nM, the “ratio of Bcl-2 D103Y/Bcl-2 wt, compared with F91b in WO2019210828” value [5] was “significantly lower” and the “Ratio of Bcl-2 D103Y/Bcl-2 WT” value [5] was 2. The IC50 [6] was 0.73 nM.
`CC(C)c1ccccc1C1CN(Cc2cccc3c2OCCCO3)CCN1C1CC2(CCN(c3ccc(C(=O)NS(=O)(=O)c4ccc(NC[C@H]5CC[C@](C)(O)CC5)c([N+](=O)[O-])c4)c(Oc4cnc5[nH]ccc5c4)c3)CC2)C1` (stereo partly drawn) [Example 107, 2-((1H-pyrrolo[2,3-b]pyridin-5-yl)oxy)-4-(2-(4-((3,4-dihydro-2H-benzo[b][1,4]dioxepin-6-yl)methyl)-2-(2-isopropylphenyl)piperazin-1-yl)-7-azaspiro[3.5]nonan-7-yl)-N-((4-((((1r,4r)-4-hydroxy-4-methylcyclohexyl)methyl)amino)-3-nitrophenyl)sulfonyl)benzamide] was tested, and the IC50 [1] was 0.33 nM, the “Ratio of Bcl-2 G101V/WT” value [2] was 5.1 and the IC50 [3] was 0.56 nM. For the same molecule, the IC50 [4, 7] was 0.11 nM, the IC50 [4, 8] was 0.11 nM and the IC50 [5] was 0.31 nM. For the same molecule, the “Ratio of Bcl-2 D103Y/Bcl-2 WT” value [5] was 2.8 and the IC50 [6] was 1.77 nM.
For `CC(C)c1ccccc1C1CN(Cc2ccc(N(C)C)cc2)CCN1C1CC2(CCN(c3ccc(C(=O)NS(=O)(=O)c4ccc(NC[C@H]5CC[C@](C)(O)CC5)c([N+](=O)[O-])c4)c(Oc4cnc5[nH]ccc5c4)c3)CC2)C1` (stereo partly drawn) [Example 114, 2-((1H-pyrrolo[2,3-b]pyridin-5-yl)oxy)-4-(2-(4-(4-(dimethylamino)benzyl)-2-(2-isopropylphenyl)piperazin-1-yl)-7-azaspiro[3.5]nonan-7-yl)-N-((4-((((1r,4r)-4-hydroxy-4-methylcyclohexyl)methyl)amino)-3-nitrophenyl)sulfonyl)benzamide], the IC50 [1] was 0.6 nM, the “Ratio of Bcl-2 G101V/WT” value [2] was 6.9 and the IC50 [3] was 0.83 nM. It also gave an IC50 [4, 7] of 0.12 nM, an IC50 [4, 8] of 0.12 nM and an IC50 [5] of 0.4 nM. For the same molecule, the “Ratio of Bcl-2 D103Y/Bcl-2 WT” value [5] was 3.4 and the IC50 [6] was 3.65 nM.
In the case of `CC(C)c1ccccc1C1CN(Cc2cccc3c2OCO3)CCN1C1CC2(CCN(c3ccc(C(=O)NS(=O)(=O)c4ccc(NC[C@H]5CC[C@](C)(O)CC5)c([N+](=O)[O-])c4)c(Oc4cnc5[nH]ccc5c4)c3)CC2)C1` (stereo partly drawn) [Example 115, 2-((1H-pyrrolo[2,3-b]pyridin-5-yl)oxy)-4-(2-(4-(benzo[d][1,3]dioxol-4-ylmethyl)-2-(2-isopropylphenyl)piperazin-1-yl)-7-azaspiro[3.5]nonan-7-yl)-N-((4-((((1r,4r)-4-hydroxy-4-methylcyclohexyl)methyl)amino)-3-nitrophenyl)sulfonyl)benzamide], the IC50 [1] is reported as 0.42 nM, the “Ratio of Bcl-2 G101V/WT” value [2] is reported as 3.8 and the IC50 [3] is reported as 0.37 nM. The IC50 [4, 7] was 0.097 nM, the IC50 [4, 8] was 0.097 nM and the IC50 [5] was 0.57 nM. For the same molecule, the “Ratio of Bcl-2 D103Y/Bcl-2 WT” value [5] was 5.9 and the IC50 [6] was 2.3 nM.
